Assay: Stability in a cosmetic preparation (clear gel), peptide content after storage
Type: physicochemical

loss of active (after 1 months at 40° C.) [%]	loss of active (after 3 months storage at 40° C.) [%]	Substance
52		Palm-Lys-Val-Lys-OH*2MPAA [MPAA salt]
	−19	Palm-Lys-Val-Lys-OH*2MA [MA salt]
